The pIC50 is −log10 of the IC50, conventionally taken in molar units.

The values that follow come from patent US20240245682A1, “ALPHA-V-BETA-8 INTEGRIN INHIBITORS AND USES THEREOF” (Pliant Therapeutics, Inc., priority 2022, published 2024).

Structures are written as SMILES. pIC50: −log10 of the molar value. “Also recorded” adds a separate entry of the source. Some results are limits rather than exact numbers.

In one data set the target is human integrin αVβ1 (Homo sapiens, UniProt P05556+P06756). Nature of the data set: AlphaScreen proximity-based integrin binding assay with TGF-b1 LAP. To be noted: values given as ranges. The essentials:
(§1)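 Purified human integrin incubated with compound, TGF-b1 LAP, biotinylated anti-LAP antibody and acceptor beads for 2 h, then streptavidin donor beads 30 min, room temperature, in 50 mM Tris-HCl pH 7.5, 0.1% BSA, 1 mM CaCl2/MgCl2. AlphaScreen signal (680 nm excitation, 520-620 nm emission); IC50 by four-parameter fit.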

The target of a further data set is human integrin αVβ6 (Homo sapiens, UniProt P06756+P18564). Described as above. Particulars: values given as ranges. The essentials: as §1
Sequence of human integrin αVβ6 (P06756 31-992 limits assumed): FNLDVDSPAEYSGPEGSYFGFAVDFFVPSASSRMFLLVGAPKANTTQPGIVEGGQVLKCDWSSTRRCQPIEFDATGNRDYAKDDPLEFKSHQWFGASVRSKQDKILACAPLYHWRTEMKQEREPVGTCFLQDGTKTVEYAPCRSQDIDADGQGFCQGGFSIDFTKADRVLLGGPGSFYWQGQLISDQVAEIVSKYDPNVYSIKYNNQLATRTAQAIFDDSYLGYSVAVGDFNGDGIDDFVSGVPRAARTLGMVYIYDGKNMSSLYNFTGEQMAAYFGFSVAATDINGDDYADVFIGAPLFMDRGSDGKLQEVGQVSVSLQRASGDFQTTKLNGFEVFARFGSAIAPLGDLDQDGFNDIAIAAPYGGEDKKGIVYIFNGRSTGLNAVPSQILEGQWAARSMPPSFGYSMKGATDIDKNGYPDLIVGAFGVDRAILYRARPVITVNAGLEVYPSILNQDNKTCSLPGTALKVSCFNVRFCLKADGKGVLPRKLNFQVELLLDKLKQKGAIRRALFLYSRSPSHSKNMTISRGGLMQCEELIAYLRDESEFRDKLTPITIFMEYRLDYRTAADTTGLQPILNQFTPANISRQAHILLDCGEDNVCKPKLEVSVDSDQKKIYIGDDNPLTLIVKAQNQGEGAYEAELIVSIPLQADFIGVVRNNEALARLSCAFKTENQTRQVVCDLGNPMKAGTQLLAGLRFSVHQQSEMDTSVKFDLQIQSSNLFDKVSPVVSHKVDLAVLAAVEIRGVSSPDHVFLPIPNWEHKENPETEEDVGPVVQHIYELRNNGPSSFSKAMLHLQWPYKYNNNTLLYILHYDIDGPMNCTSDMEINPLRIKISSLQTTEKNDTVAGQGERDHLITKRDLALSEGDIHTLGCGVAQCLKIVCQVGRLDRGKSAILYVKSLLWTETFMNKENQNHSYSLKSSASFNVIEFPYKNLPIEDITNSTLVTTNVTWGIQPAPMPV
Sequence of human integrin αVβ6 (P18564 22-707 limits assumed): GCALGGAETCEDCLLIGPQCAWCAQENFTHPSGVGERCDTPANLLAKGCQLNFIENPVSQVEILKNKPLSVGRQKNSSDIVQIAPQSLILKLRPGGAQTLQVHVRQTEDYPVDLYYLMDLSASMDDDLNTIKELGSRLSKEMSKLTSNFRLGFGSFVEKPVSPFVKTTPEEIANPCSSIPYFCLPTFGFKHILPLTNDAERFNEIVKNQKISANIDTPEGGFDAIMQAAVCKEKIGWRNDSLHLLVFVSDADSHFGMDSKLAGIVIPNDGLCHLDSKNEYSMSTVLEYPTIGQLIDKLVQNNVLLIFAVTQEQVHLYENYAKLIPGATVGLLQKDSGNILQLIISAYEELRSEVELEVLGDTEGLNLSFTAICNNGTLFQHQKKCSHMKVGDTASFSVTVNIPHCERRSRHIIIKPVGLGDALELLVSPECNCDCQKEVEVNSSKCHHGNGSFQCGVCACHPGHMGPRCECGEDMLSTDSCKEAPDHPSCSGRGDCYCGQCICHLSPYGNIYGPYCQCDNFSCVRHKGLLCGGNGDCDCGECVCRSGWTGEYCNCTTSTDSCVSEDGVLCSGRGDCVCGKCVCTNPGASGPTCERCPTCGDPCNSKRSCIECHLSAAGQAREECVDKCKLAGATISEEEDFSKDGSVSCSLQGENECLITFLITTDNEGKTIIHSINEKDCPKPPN
In a further data set the target is human integrin αVβ8 (Homo sapiens, UniProt P06756+P26012). The data set is described as above. To be noted: values given as ranges. In short, it runs like this: as §1
Sequence of human integrin αVβ8 (P06756 31-992 limits assumed): as the sequence (P06756 31-992 limits assumed) above
Sequence of human integrin αVβ8 (P26012 43-684 limits assumed): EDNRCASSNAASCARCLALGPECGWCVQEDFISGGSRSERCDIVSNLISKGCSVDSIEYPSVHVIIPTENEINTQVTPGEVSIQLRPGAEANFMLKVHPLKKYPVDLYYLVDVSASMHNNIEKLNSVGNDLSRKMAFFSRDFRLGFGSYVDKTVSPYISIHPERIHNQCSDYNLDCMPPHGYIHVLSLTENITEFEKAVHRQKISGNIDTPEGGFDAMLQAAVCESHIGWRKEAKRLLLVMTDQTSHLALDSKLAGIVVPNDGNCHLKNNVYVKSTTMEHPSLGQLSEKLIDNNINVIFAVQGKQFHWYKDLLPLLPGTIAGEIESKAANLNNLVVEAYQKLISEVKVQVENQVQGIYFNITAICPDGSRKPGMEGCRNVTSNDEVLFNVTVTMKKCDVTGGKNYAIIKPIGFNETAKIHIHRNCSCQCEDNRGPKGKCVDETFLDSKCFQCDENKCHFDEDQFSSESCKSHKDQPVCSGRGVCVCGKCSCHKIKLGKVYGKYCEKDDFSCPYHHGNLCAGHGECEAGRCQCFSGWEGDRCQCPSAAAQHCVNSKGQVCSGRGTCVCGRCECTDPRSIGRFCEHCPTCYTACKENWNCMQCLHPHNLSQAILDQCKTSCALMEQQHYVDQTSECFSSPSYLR
For data set [1], the system named is human breast and melanoma tumor tissues. Briefly: Ex vivo cultured human breast and melanoma tumor tissues (Example B9). Format: cell-based. On the procedure:
Inhibition of αvβ1 and TGF-β mediated by Compound 39 of the examples was monitored via cell adhesion assays and transcriptomic analyses. αvβ1 protein expression was evaluated on human tumor tissues via immunohistochemistry using an indigenously developed anti-αvβ1 antibody. Efficacy of Compound 39 monotherapy and in combination with ICB was evaluated in syngeneic mouse models bearing EMT6 and Pan02 tumors. Animal survival, tumor growth, transcriptomic analyses, tissue fibrosis, and TILs were monitored along with circulating lymphocytes and cytokines. Tissue and circulating biomarkers of response to Compound 39 were identified. Human breast and melanoma tumor tissues were cultured ex vivo and Compound 39 activity was assessed by measuring CD8+ cytotoxic T cells and tumor apoptosis.

The subject of a further data set is TKCC-08 tumors. Briefly: Subcutaneous FNX-resistant TKCC-08 PDX model of PDAC (Example B12). The class given is in vivo, NSG mice. On the procedure: Table B-9 depicts the study design to determine the efficacy of selective αvβ1/αvβ8 SMI in the orthotopic ECM-high PDX models of PDAC. Table B-10 depicts the study design for the TKCC-10 PDX model.
Table B-12 depicts the study design for the TKCC-08 model.
FNX is a standard of care chemotherapy regimen for pancreatic ductal adenocarcinoma. However, the clinical response to FNX remains bleak. To assess if Compound 39 augmented the therapeutic benefit of FNX, Compound 39 was tested alone and in combination with FNX in the TKCC-08 model, which is made FNX-resistant by continuous exposure to the FNX.

The test system of a further data set is KPC tumors. Briefly: Orthotopic KPC syngeneic model of PDAC (Example B11).

Sequence of human integrin αVβ1 (P06756 31-992 limits assumed): as the sequence (P06756 31-992 limits assumed) above
Sequence of human integrin αVβ1 (P05556 21-728 limits assumed): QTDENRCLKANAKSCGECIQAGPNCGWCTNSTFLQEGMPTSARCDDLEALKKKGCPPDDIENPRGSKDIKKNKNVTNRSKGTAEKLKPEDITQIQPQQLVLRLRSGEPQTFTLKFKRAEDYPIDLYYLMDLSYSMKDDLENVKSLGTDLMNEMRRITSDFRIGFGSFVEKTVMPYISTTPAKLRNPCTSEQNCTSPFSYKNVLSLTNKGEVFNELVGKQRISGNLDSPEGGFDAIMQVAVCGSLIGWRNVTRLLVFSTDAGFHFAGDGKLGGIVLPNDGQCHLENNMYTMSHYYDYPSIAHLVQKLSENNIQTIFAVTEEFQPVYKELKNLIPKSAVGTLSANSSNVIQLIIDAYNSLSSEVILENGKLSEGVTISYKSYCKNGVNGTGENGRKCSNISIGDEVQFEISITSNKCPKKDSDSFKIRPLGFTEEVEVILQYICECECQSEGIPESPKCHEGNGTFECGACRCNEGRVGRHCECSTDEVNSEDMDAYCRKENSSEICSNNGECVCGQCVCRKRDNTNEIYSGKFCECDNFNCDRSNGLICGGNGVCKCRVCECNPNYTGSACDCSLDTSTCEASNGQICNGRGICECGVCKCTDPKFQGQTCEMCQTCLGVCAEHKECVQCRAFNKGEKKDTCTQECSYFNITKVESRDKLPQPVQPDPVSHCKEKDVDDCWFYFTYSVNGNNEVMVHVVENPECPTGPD
Experimental for KPC tumors: The preclinical efficacy of Compound 39 of the examples was determined in genetically-defined (LSL-KrasG12D/+; LSL-Trp53R172H/+; Pdx1-Cre (KPC), and Pan02) and genomically diverse patient-derived PDA xenograft models. Clinically relevant combinations with standard of care (SoC) chemotherapy and anti-programmed death receptor-1 antibody (anti mPD-1) were tested by monitoring tumor growth, metastasis, and animal survival. Mechanistic assessment of alterations in the tumor microenvironment (TME) was performed using transcriptomic, immunohistochemical, and immunofluorescence approaches.
Animals were prepared for injection using standard approved anesthesia. Mice were shaved and tumor cells 500 KPC cells were orthotopically implanted (in pancreas) in a 100 μL cell suspension.
Tumor cells were allowed to form pancreatic tumors for one week. Mice were randomized into groups and treated with indicated compounds and dose regimens according to the schema outlined in Table B-7.
Compound 39 was administered in a solution containing 10% v/v ethanol, 70% w/v propylene glycol, and 20% v/v PBS and administered to mice via oral gavage at a dose of 300 mg/kg body weight over the duration of 22 days (for timepoint study) or 80 days (survival study). The mAbs, anti-mPD-1 and anti-αVβ8, were each administered in PBS by intraperitoneal injection at a dose of 10 mg/kg body weight twice a week (for 2 weeks).
Since these were orthotopic tumors, tumor volume measurement was not possible. Tumor weights were determined at the end of the study. Additionally, body weight of mice and any change in behavior/appearance were monitored twice a week for any signs of discomfort/toxicity.
The study was terminated either at 22 days after the first dose, or at 80 days for the survival study. Mice were euthanized and tumors were collected. Half of the tumor was snap frozen in liquid nitrogen and the other half was fixed in formalin.
Formalin (10%) fixed tissues were sent to Histowiz (a clinical research organization providing complete histology services) for paraffin embedding and sectioning. Using standard protocols optimized by Histowiz, tissue sections were stained for hematoxylin and eosin and immunostained for CD8, CD4, Cleaved caspase-3, and FoxP3, which are specific membrane markers for cytotoxic, helper, and regulator T cells, respectively. Additionally, tissues were stained with Pico Sirius Red (PSR) and second harmonic imaging (SHG) analysis was performed to evaluate stromal collagen density.

Consider `Cc1ncnc(Cl)c1C1(C(=O)N[C@@H](CCOCCCCc2ccc3c(n2)NCCC3)C(=O)O)CC1` [Compound 39, N-(1-(4-chloro-6-methylpyrimidin-5-yl)cyclopropane-1-carbonyl)-O-(4-(5,6,7,8-tetrahydro-1,8-naphthyridin-2-yl)butyl)-L-homoserine], for which the pIC50 was above 7.30 at human integrin αVβ1, at most 6.30 on human integrin αVβ6 and above 7.30 at human integrin αVβ8. Moreover, the “cytotoxic CD8^+ T cells” value in data set [1] is “significant increase in cytotoxic CD8^+T cells”. Also, the fibrotic markers entry in data set [1] was “reduction in fibrotic markers”. In addition, the mean tumor weight in the data set on TKCC-08 tumors (FNX-resistant subcutaneous tumors, Compound 39 300 mg/kg BID oral, FNX i.v. weekly, FIG. 27B) came out at 0.4 ± 0.15 g; with KPC tumors (22 day timepoint, Compound 39 300 mg/kg oral gavage, mAbs 10 mg/kg i.p., FIG. 20B) it was 0.44 ± 0.9 g. Also, the “tumor growth and tumor weight” value with TKCC-08 tumors (in words, FIG. 27A, 27B) is “significantly reduced the tumor growth and the tumor weight”. For the same molecule, in the data set on KPC tumors (FIG. 22A, 22B), the “collagen content (PSR, SHG imaging)” value is on record as “significantly reduced the collagen content”. In the data set on KPC tumors (FIG. 79), the “reduction in tumor weight compared with vehicle” value came to 45%. The “avg % CD8^+ T cells/ROI, invasive (leading) edge” value with KPC tumors (IHC, FIG. 21A) came to 3.06±1.05%. The “avg % CD8^+ T cells/ROI, internal tumor” value in the data set with KPC tumors (IHC, FIG. 21B) is recorded as 2.02±0.77%. The “disease progression / overall survival” value with KPC tumors (in words, FIG. 23, 46, 47) is reported as “delayed disease progression in vivo; also recorded: improved overall survival compared to α-PD-1”. The “CD4^+ T cells” value in the data set with KPC tumors (in words, compared to vehicle, FIG. 21E, 21F) is recorded as “did not show any significant difference in CD4^+ T cells”. The “median survival (median OS)” value in the data set with KPC tumors (survival study up to 80 days, FIG. 23B, 23C) is given as 45 days.
